The subject of one series is COLO 205 cells. Put plainly: Cell cycle studies (G2/M arrest, DNA content by FACS) in COLO 205 cells. In kind it is cell-based, human. In general terms: A flow cytometer gives signals particle by particle.
For series [1] the following is noted: single intravenous dose of 12.5 μg/kg; cited from earlier work.
Series [2] is described as follows: Thiol-disulfide interchange of DM4 in RPMI 1640 medium. The conditions noted are these: buffer.
Experimental: To further test whether any of the metabolites in the media was a disulfide compound, a cell supernatant sample from a 26-hour exposure was divided into two equal portions of which one was subjected directly to chromatography, and the other portion was treated with DTT and selenol before chromatography to reduce all disulfide bonds (18).
The test system of series [3] is antigen-positive COLO 205 cells. Put plainly: MTT-based cytotoxicity assay, COLO 205 cells (Example 2). In kind it is cell-based, human. The conditions noted are these: conjugates 4-day exposure. How it is done: (§1) The anti-tumor activity of the two conjugates was assessed in SCID mice bearing subcutaneous HT-29 or COLO 205 tumors (both CanAg-positive human colon adenocarcinoma).
(§2) The two major metabolites, S-methyl-DM4 and lysine-N^ε—SMCC-DM1, were synthesized and tested for their in vitro cytotoxicity against COLO 205 cells and Namalwa cells.
For orientation: Tetrazolium dyes change colour on reduction, which living cells bring about.

Series [4] has as its system antigen-negative Namalwa cells. Put plainly: MTT-based cytotoxicity assay, Namalwa cells (Example 2). Conditions: free maytansinoids. In kind it is cell-based, human. How it is done:
as §1, §2

What is called half-life is the time in which the quantity being followed falls by half. Lower therefore signals fast loss. As a reminder, the IC50 is the midpoint of a concentration-inhibition curve. Higher therefore signals weaker potency in that assay.

Turning to `CO/C1=C\C(C)=C\[C@@H](C)[C@@H](O)[C@@H](C)C/C(C)=C/C=C/[C@H](OC)[C@@H]([C@@H](C)[C@@H](O)[C@H](C)[C@@]2(O)C[C@@H](O)[C@H](C)[C@@H](C(C)C)O2)OC1=O` [BafA1, Bafilomycin A1, reference compound], the “distribution of cells between the phases of the cell cycle” value in the series with COLO 205 cells (BafA1 alone) is “did not significantly alter the distribution of cells”. With `COc1c(O)c2c(c3cc(C(=O)N4CCc5c4c(O)c(OC)c4[nH]c(C(=O)N6CC7CC78C6=CC(=O)c6[nH]cc(C)c68)cc54)[nH]c13)CCN2C(N)=O` (stereo not drawn) [CC-1065], in series [1], the “toxicity after administration to mice” value is on record as “delayed hepatotoxicity leading to mortality on day 50”.

In the case of `COc1cc2cc(c1Cl)N(C)C(=O)C[C@H](OC(=O)[C@H](C)N(C)C(=O)CCSSC)[C@]1(C)O[C@H]1[C@H](C)[C@@H]1C[C@@](O)(NC(=O)O1)[C@H](OC)/C=C/C=C(\C)C2` [DM1-SMe, N^2′-deacetyl-N^2′-[(3-methyldithio)-1-oxopropyl]-maytansine], the “cells in G2 in the presence of chloroquine” value with COLO 205 cells (20 h, 30 μM chloroquine, 10^−8 M DM1-SMe, 3×10^−9 M huC242-SMCC-DM1) worked out at 51%. In addition, the “cells in G2/M phase after release from aphidicolin” value in the series with COLO 205 cells (synchronized cells, after 10 h and after 18 h) is given as 75% to 85%. With `COc1cc2cc(c1Cl)N(C)C(=O)CC(OC(=O)C(C)N(C)C(=O)CCC(C)(C)S)C1(C)OC1C(C)C1CC(O)(NC(=O)O1)C(OC)/C=C/C=C(\C)C2` (stereo not drawn) [DM4, N^2′-deacetyl-N-^2′(4-methyl-4-mercapto-1-oxopentyl)-maytansine], the half-life in series [2] was less than 1 h. With `COc1cc2cc(c1Cl)N(C)C(=O)C[C@H](OC(=O)[C@H](C)N(C)C(=O)CCC(C)(C)SC)[C@]1(C)O[C@H]1[C@H](C)[C@@H]1C[C@@](O)(NC(=O)O1)[C@H](OC)/C=C/C=C(\C)C2` [S-methyl-DM4, N^2′-deacetyl-N^2′-(4-methylthio-4-methyl-1-oxopentyl)-maytansine], the IC50 in series [3] and in series [4] was 0.002 nM throughout. Take `COc1cc2cc(c1Cl)N(C)C(=O)C[C@H](OC(=O)[C@H](C)N(C)C(C)=O)[C@]1(C)O[C@H]1[C@H](C)[C@@H]1C[C@@](O)(NC(=O)O1)[C@H](OC)/C=C/C=C(\C)C2` [maytansine, reference compound]: the IC50 in series [3] (Homo sapiens, COLO 205, 96 h) was 0.03 to 0.06 nM; in series [4] (Homo sapiens), 0.03 to 0.06 nM.

The values are drawn from patent US8388960B2, “Elimination of heterogeneous or mixed cell population in tumors” (priority 2005, dated 2013).
